One assay concerns Botrytis cinerea. Briefly: Fungicidal activity, microtiter plate format. Type of assay: cell-based.
For another assay, the system named is Stagonospora nodorum. Briefly: Fungicidal activity, microtiter plate format. It counts as cell-based. As to conditions: for pIC50: Parastagonospora nodorum, read-out: IC50 S. nodorum.
A further assay relates to Phytophthora infestans. Kind of assay: microbe, parasite or virus in culture. Type of assay: cell-based. As to conditions: read-out: IC50 P. infestans.
A further assay relates to Septoria tritici. Briefly: Fungicidal activity, microtiter plate format. It counts as cell-based.
The next assay concerns Sclerotinia homoeocarpa. Kind of assay: Turf trial on creeping bentgrass (dollar spot).
The next assay has as its system Puccinia recondita. Kind of assay: Cereal field trial on soft red winter wheat (leaf rust). Type of assay: in vivo. As to conditions: wheat cultivar Sisson. As to the method:
A field trial of Compound 4 was conducted on soft red winter wheat cultivar Sisson. Very dry weather gave rise to a low natural incidence of leaf rust (Puccinia recondita: PUCCRT) late in the trial. Compound 4 was applied as a 9.5% active ingredient (weight/weight) emulsifiable concentrate of the following formula (each weight/weight): 9.5% Compound 4, 9.5% m-Pyrol, 65% Surfadone LP-100, 6% Surfadone LP-300, 5% Toximul 3463F, and 5% Toximul 3464F. Rates of Compound 4 application were as follows (grams active ingredient per hectare: g a.i./ha): 140, 280 and 421.

Where [1] appears, read: fungal growth on agar, 20° C., 3-5 days, C.V. class in parentheses.

The text below walks through data of patent publication US7977341B2, “Substituted isoxazoles as fungicides” (Syngenta Limited, priority 2004, dated 2011).

pIC50: −log10 of the molar value. Like-named read-outs stand apart in the source and are kept apart here.

Experimental for Sclerotinia homoeocarpa: A fungicide trial was conducted on a 15-yr-old sward of creeping bentgrass v. Penncross during the spring. […] Treatments were arranged as plots (0.5×1.0 m) in a randomized complete block design with four replications. […] The turfgrass was inoculated with autoclaved tall fescue seed infested with Sclerotinia homoeocarpa (common name: dollar spot) six hours after application of the initial preventive treatments. The plots received approximately 0.24 inches of irrigation water daily at 1700 hour to ensure nightly foliar wetness for infection. The Horsfall-Barratt rating scale was used to visually estimate disease severity at approximately 7-day intervals from the initial application date. Turfgrass quality was assessed using a 0-9 scale where 0=a necrotic, thin foliar canopy and 9=a dark green, dense foliar canopy. Disease and quality values were subjected to analysis of variance and means were statistically separated using the Scott-Knott cluster analysis procedure.

One may read the pIC50 as −log10 of the IC50, conventionally taken in molar units. In the case of `C[Si](C)(C)c1onc(-c2c(Cl)cccc2Cl)c1C(O)c1cccnc1` (stereo not shown) [Compound 1, 3-(2,6-Dichlorophenyl)-4-[(3-pyridyl)hydroxymethyl]-5-trimethylsilylisoxazole], the pIC50 is under 4.00 with Botrytis cinerea (Botrytis cinerea, read-out: IC50 B. cinerea); under 4.00 with Stagonospora nodorum; under 4.00 in the assay on Phytophthora infestans. For the same compound, the “IC50 S. tritici” value in the assay with Septoria tritici is listed as “C (b)”.

Regarding `C[Si](C)(C)c1onc(-c2ccc(Cl)cc2Cl)c1C(O)c1cccnc1` (stereo not shown) [Compound 3, 3-(2,4-Dichlorophenyl)-4-[(3-pyridyl)hydroxymethyl]-5-trimethylsilylisoxazole], the “IC50 B. cinerea” value with Botrytis cinerea is recorded as “B (b)”. Moreover, in the assay with Stagonospora nodorum, the “IC50 S. nodorum” value is on record as “B (d)”. For the same compound, the pIC50 in the assay with Phytophthora infestans is under 4.00. Besides, the “IC50 S. tritici” value in the assay on Septoria tritici was “A (b)”.

Consider `OC(c1cccnc1)c1c(-c2ccc(Cl)cc2Cl)noc1-c1cccc(Cl)c1` (stereo not shown) [Compound 4, 5-(3-Chlorophenyl)-3-(2,4-dichlorophenyl)-4-[(3-pyridyl)hydroxymethyl]-isoxazole], for which the “IC50 B. cinerea” value with Botrytis cinerea (setting [1]) is given as “B (d)”. In the assay on Stagonospora nodorum (setting [1]), the “IC50 S. nodorum” value is “A (b)”. In the assay on Phytophthora infestans, the pIC50 is under 4.00. In addition, the “IC50 S. tritici” value in the assay with Septoria tritici (setting [1]) is reported as “A (c)”. In addition, the “Dollar spot disease control (Horsfall-Barratt disease severity)” value in the assay on Sclerotinia homoeocarpa (creeping bentgrass v. Penncross, Compound 4 as 25% wetable powder at 2.2, 4.4, 8.8 g a.i./1000 sq ft, mean disease <3.0% acceptable) is “effective control on dollar spot during most of the trial period”. Further, in the assay on Sclerotinia homoeocarpa (creeping bentgrass, ratings >6.0 acceptable), the “Turfgrass quality (0-9 scale)” value is reported as “Highest quality ratings”. For the same compound, the “Control of leaf rust incidence” value with Puccinia recondita (9.5% emulsifiable concentrate, 140, 280 and 421 g a.i./ha, low natural incidence) is given as “good control of the rust incidence”. Besides, in the assay with Puccinia recondita (highest rate of Compound 4), the Yield enhancement entry is given as “Yield enhancement was observed”.

Regarding `CC(C)(C)c1onc(-c2ccc(Cl)cc2Cl)c1C(O)c1cccnc1` (stereo not shown) [Compound 7, 3-(2,4-Dichlorophenyl)-5-(1,1-dimethylethyl)-4-[(3-pyridyl)hydroxymethyl]-isoxazole], in the assay on Botrytis cinerea (setting [1]), the “IC50 B. cinerea” value is listed as “B (c)”. For the same compound, the pIC50 in the assay on Stagonospora nodorum (setting [1]) is under 4.00; in the assay with Phytophthora infestans, under 4.00; in the assay with Septoria tritici (Zymoseptoria tritici, fungal growth on agar, 20° C., 3-5 days, C.V. class in parentheses, read-out: IC50 S. tritici), under 4.00.

With `OC(c1cccnc1)c1c(-c2ccc(Cl)cc2Cl)noc1-c1cccs1` (stereo not shown) [Compound 12, 3-(2,4-Dichlorophenyl)-4-[(3-pyridyl)hydroxymethyl]-5-(2-thienyl)isoxazole], the “IC50 B. cinerea” value in the assay with Botrytis cinerea (setting [1]) was “B (c)”. Further, the “IC50 S. nodorum” value in the assay with Stagonospora nodorum (setting [1]) is “B (d)”. The pIC50 in the assay on Phytophthora infestans was under 4.00. In addition, the “IC50 S. tritici” value in the assay with Septoria tritici (setting [1]) was “A (b)”.

In the case of `OC(c1cccnc1)c1c(-c2ccc(Cl)cc2Cl)noc1-c1ccsc1` (stereo not shown) [Compound 13, 3-(2,4-Dichlorophenyl)-4-[(3-pyridyl)hydroxymethyl]-5-(3-thienyl)isoxazole], the “IC50 B. cinerea” value in the assay on Botrytis cinerea (setting [1]) is given as “B (b)”. Further, in the assay on Stagonospora nodorum (setting [1]), the “IC50 S. nodorum” value is on record as “B (d)”. Further, the negative logarithm of the IC50 (pIC50) in the assay on Phytophthora infestans is under 4.00. In the assay on Septoria tritici (setting [1]), the “IC50 S. tritici” value was “A (b)”.
